The values below come from US4393058A, “Cephalosporin compounds” (Meiji Seika Kaisha, Ltd., priority 1979, dated 1983).

Values after ≈ are worked out from the molar mass of the structure shown. Structures can show the parent of a compound that is named as a salt.

For data set [1], the system named is Staphylococcus aereus 209PJC-1. The data set is described as follows: Minimum Inhibitory Concentration by Agar Plate Dilution Method. The format is cell-based. To be noted: 209PJC1.
Data set [2] concerns Proteus morganii 1510 (CSase). Described as above. The conditions noted are these: Morganella morganii. The format is cell-based.
The next data set has as its system Maltophilia 604. Described as above. The data set is classed as cell-based.
In data set [3] the test system is Escherichia coli GN 206 (CSase). The data set is described as above. The data set is classed as cell-based. To be noted: GN206.
Data set [4] relates to Serratia species GN 629 (CSase). The description is as above. The format is cell-based. The conditions noted are these: GN629.
For data set [5], the system named is Bacillus anthracis No. 119. The data set is described as follows: microbe, parasite or virus in culture. The format is cell-based. The conditions noted are these: NO.119, read-out: Minimum Inhibitory Concentration.
Data set [6] deals with Serratia marcescens No. 1. The data set is described as follows: Minimum Inhibitory Concentration by Agar Plate Dilution Method. The data set is classed as cell-based.
In another data set the test system is Proteus vulgaris OX 19. Described as above. The data set is classed as cell-based. To be noted: OX19.
Data set [7] has as its system Pseudomonas cepacia M-0527. The description is as above. The data set is classed as cell-based. The conditions noted are these: Burkholderia cepacia, M0527.
In data set [8] the test system is Pseudomonas cepacia TMS 199, KM 425. Described as above. The format is cell-based. The conditions noted are these: Burkholderia cepacia.
Data set [9] has as its system Pseudomonas aeruginosa IAM-1007. The description is as above. The data set is classed as cell-based. To be noted: IAM1007.
The subject of the next data set is mice. The data set is described as follows: Acute toxicity, intraperitoneal administration to mice. The format is in vivo. The conditions noted are these: six mice, intraperitoneally 1,000 mg/kg. Here is the method: The toxicity of the compounds according to this invention is very low. None of the six mice administered intraperitoneally 1,000 mg/kg of the compound of Example 2 died. Therefore, the compounds of this invention have very low toxicity. In addition, they have a wide antibacterial spectrum and are very effective in treating infectious diseases, as compared with the conventional cephalosporin series antibiotics such as cephalotin, cefazolin, cephalexin and cephaloridine.

Data set [10] concerns Klebsiella pneumoniae GN 69 (PCase). The data set is described as follows: Minimum Inhibitory Concentration by Agar Plate Dilution Method. The data set is classed as cell-based. The conditions noted are these: GN69.
The subject of data set [11] is Staphylococcus aereus Smith S-424. Described as above. The data set is classed as cell-based. The conditions noted are these: SMITHS424.
The test system of data set [12] is Pseudomonas aeruginosa M-0025. The description is as above. The conditions noted are these: M0025. The format is cell-based.
Data set [13] concerns Citrobacter freundii GN 346 (CSase). Described as above. The format is cell-based. To be noted: GN346.
The subject of data set [14] is Proteus rettgeri GN 624 (CSase). Described as above. The format is cell-based. The conditions noted are these: Providencia rettgeri, GN624.
Data set [15] concerns Gram-positive and Gram-negative bacteria, including Pseudomonas aeruginosa. The conditions noted are these: conventional cephalosporin series antibiotics; cited from earlier work.

For the compound `COc1ccc(-c2ccc(C(=O)N[C@@H](C(=O)NC3C(=O)N4C(C(=O)O)=C(CSc5nnnn5C)CSC34)c3ccc(O)cc3)c(=O)[nH]2)cc1OC` (single isomer, unassigned) [Example 2, sodium salt of 7-{D(-)-α-[6-(3,4-dimethoxyphenyl)-1,2-dihydro-2-oxopyridine-3-carbonylamino]-p-hydroxyphenylacetamido}-3-(1-methyl-1,2,3,4-tetrazol-5-ylthiomethyl)-3-cephem-4-carboxylic acid], the MIC is 0.78 µg/mL in data set [1]; 25 µg/mL in data set [2]; 6.25 µg/mL against Maltophilia 604; 3.13 µg/mL in [3]; 12.5 µg/mL in [4]; 1.56 µg/mL in [5]. For the same compound, the MIC worked out at 3.13 µg/mL in data set [6]; 0.78 µg/mL against Proteus vulgaris OX 19; 6.25 µg/mL in data set [7]; 6.25 µg/mL in [8]; 6.25 µg/mL in data set [9]; 12.5 µg/mL in [10]. Moreover, the MIC in [11] is 0.78 µg/mL; in data set [12], 3.13 µg/mL; in data set [13], 3.13 µg/mL; in data set [14] it was 12.5 µg/mL. Further, in the data set on mice, the mice that died result is on record as “None”.

For `COc1ccc(COc2ccc(-c3ccc(C(=O)N[C@@H](C(=O)NC4C(=O)N5C(C(=O)O)=C(CSc6nnnn6C)CSC45)c4ccc(O)cc4)c(=O)[nH]3)cc2OC)cc1OC` (single isomer, unassigned) [Example 5, sodium salt of 7-{D(-)-α-[6-[4-(3,4-dimethoxybenzyloxy)-3-methoxyphenyl]-1,2-dihydro-2-oxopyridine-3-carbonylamino]-p-hydroxyphenylacetamido}-3-(1-methyl-1,2,3,4-tetrazol-5-ylthiomethyl)-3-cephem-4-carboxylic acid], the MIC amounted to 0.78 µg/mL in data set [1]; 12.5 µg/mL in [2]; 12.5 µg/mL in the data set on Maltophilia 604; 0.2 µg/mL in data set [3]; 12.5 µg/mL in [4]; 0.2 µg/mL in [5]. The MIC in data set [6] worked out at 3.13 µg/mL; in the data set with Proteus vulgaris OX 19, 0.39 µg/mL; in [7], 6.25 µg/mL; in data set [8] it was 6.25 µg/mL; in [9], 12.5 µg/mL; in [10] it was 6.25 µg/mL. For the same compound, the MIC was found to be 0.78 µg/mL in data set [11], 3.13 µg/mL in data set [12], 0.78 µg/mL in [13] and 3.13 µg/mL in data set [14].

As to `CCN1CCN(C(=O)N[C@@H](C(=O)N[C@@H]2C(=O)N3[C@@H]2SC(C)(C)[C@@H]3C(=O)O)c2ccccc2)C(=O)C1=O` [Example T-1220, piperacillin, reference compound], the MIC is 0.78 µg/mL (≈ 1.51 µM) in data set [1]; 50 µg/mL (≈ 96.6 µM) in [2]; 200 µg/mL (≈ 386 µM) in the data set with Maltophilia 604; 25 µg/mL (≈ 48.3 µM) in [3]; 25 µg/mL (≈ 48.3 µM) in data set [4]; 0.78 µg/mL (≈ 1.51 µM) in data set [5]. The MIC came out at 1.56 µg/mL (≈ 3.01 µM) in data set [6]; 1.56 µg/mL (≈ 3.01 µM) against Proteus vulgaris OX 19; 1.56 µg/mL (≈ 3.01 µM) in data set [7]; 12.5 µg/mL (≈ 24.2 µM) in data set [9]; 50 µg/mL (≈ 96.6 µM) in data set [10]; 1.56 µg/mL (≈ 3.01 µM) in [11]. For the same compound, the MIC turned out to be 6.25 µg/mL (≈ 12.1 µM) in [12], 100 µg/mL (≈ 193 µM) in data set [13] and 0.78 µg/mL (≈ 1.51 µM) in data set [14].

Turning to `Cc1nnc(SCC2=C(C(=O)O)N3C(=O)[C@@H](NC(=O)Cn4cnnn4)[C@H]3SC2)s1` [cefazolin], the “control of Gram-negative bacilli typified by Pseudomonas aeruginosa” value (“control” below) in data set [15] is “cannot be controlled”.

Regarding `CC1=C(C(=O)O)N2C(=O)[C@@H](NC(=O)[C@H](N)c3ccccc3)[C@H]2SC1` [cephalexin], in data set [15], the “control” value was “cannot be controlled”.

Consider `O=C(Cc1cccs1)N[C@@H]1C(=O)N2C(C(=O)[O-])=C(C[n+]3ccccc3)CS[C@H]12` [cephaloridine], for which the “control” value in data set [15] was “cannot be controlled”.

In the case of `CC(=O)OCC1=C(C(=O)O)N2C(=O)[C@@H](NC(=O)Cc3cccs3)[C@H]2SC1` [cephalotin], the “control” value in [15] is “cannot be controlled”.
